Key:
[1] = tested on: male C57BL6/J mice on 60% high fat diet; assay: TMA lyase inhibition in high fat diet-fed mice (HFD vs HFD+IMC); assay type: in vivo; conditions: 0.06% IMC in 60% high fat diet, 6-week-old male C57BL6/J mice
Description: 6-week-old male C57BL6/J mice were maintained on either 60% high fat diet (HFD) or HFD supplemented with 0.06% TMA lyase inhibitor iodomethyl choline (HFD+IMC) for weeks. Results are shown in FIG. 7 (A-E): A) Plasma TMA and TMAO levels (uM); B) Body weight (g); C) Food consumption normalized to body weight (g of diet consumed per day per g of body weight); D) Glucose tolerance measured after 12 weeks on diet; and E) Plasma insulin measured following an overnight fast (Fasted) or 4 hours postprandially (Fed); n=4-5 mice/group.
To determine the role of TMA and TMAO on diet-induced obesity, cohorts of 6-week-old male C57BL6/J mice fed HFD and HFD+IMC were supplemented with either 100 mM TMA in the drinking water (K-M) or 0.3% w/w TMAO in the diet (N-P). […] FIGS. 7K-P specifically show: K) Plasma TMA and TMAO levels (uM) after 6 weeks on diet and TMA supplementation; L) Body weight (g) over 12 weeks; M) Glucose tolerance measured after 10 weeks on diet and TMA supplementation; N) Plasma TMA and TMAO levels (uM) after 12 weeks on diet and TMAO supplementation; O) Body weight (g) over 20 weeks; and P) Glucose tolerance measured after 12 weeks on diet and TMAO supplementation. n=8-10 mice per diet group for all studies unless otherwise indicated. […] Statistical significance determined using student's t-test or two-way ANOVA where appropriate. […]

[2] = tested on: male leptin deficient ob/ob mice; assay: TMA lyase inhibition in leptin deficient ob/ob mice (Con vs Con+IMC); assay type: in vivo; conditions: 0.06% IMC in control diet, 16 weeks
Text: 6-week-old male leptin deficient ob/ob mice were maintained on either control diet (Con) or control diet supplemented with 0.06% TMA lyase inhibitor iodomethyl choline (Con+IMC) for 16 weeks. Results are shown in FIG. 7(F-J): F) Plasma TMA and TMAO levels (uM); G) Body weight (g); H) Food consumption normalized to body weight (g of diet consumed per day per g of body weight); I) Glucose tolerance measured after 12 weeks on diet; and J) Mean oxygen consumption (VO2; ml/kg/hr) measured after 5 weeks on diet; n=6 mice/group.
FIG. 8A-F represents data from HFD model and G-K the Ob/Ob model. FIG. 8A,G. Principal co-ordinate analysis (PCoA) plot of microbiota profiles built from weighted Unifrac distances. Each point represents a single sample from a single mouse. Positions of points in space display dissimilarities in the microbiota, with points further from one another being more dissimilar. FIG. 8B,H. Barplot of cecal microbiota at the phylum level. Each bar represents an individual mouse and each color an individual phyla. FIG. 8C. Relative abundance of Firmicutes, Bacteroidetes and the Firmicutes to Baceteroidetes ratio for mice on HFD with or without IMC. […] Points extending beyond the lines are outliers defined as values greater or less than 1.5 times the interquartile range. […] FIG. 8E,J. Spearman's correlation between Akkermansia muciniphila and TMA/body weight. […]

[3] = tested on: G protein-coupled receptor trace amine-associated receptor 5 (TAAR5); conditions: Li et al., 2013; cited from earlier work

Row | SMILES | obesity driven by high fat diet [1] | obesity driven by leptin deficiency [2] | activation/recognition of TAAR5 [3]
1 | C[N+](C)(CI)CCO [IMC, iodomethyl choline] | improves obesity | improves obesity | –
2 | CN(C)C [TMA, trimethylamine] | – | – | known to activate
3 | C[N+](C)(C)[O-] [TMAO, trimethylamine-N-oxide] | – | – | does not recognize

Reference: US11771659B2, “Treating disease and promoting weight loss by inhibiting the TMA/FMO3/TMAO pathway” (The Cleveland Clinic Foundation, priority 2017, dated 2023)
